The test system of one assay is SW480 cells. The assay can be described thus: Caveolin-1 expression (Western blot) in SW480 cells. The class given is cell-based, human. Conditions: SW480, 72 hr. The procedure:
SW480, HT-29, HCT-15 and Panc-28 (3×10^5) colon cancer cells were seeded in 6-well tissue culture plates in DMEM/Ham's F-12 medium containing 2.5% charcoal-stripped FBS. Protein is extracted from the cells treated either with vehicle or indicated compounds suspended for 24 hr except for caveolin-1 protein which was done for 72 hr. Samples were extracted in high salt buffer [50 mmol/L HEPES, 500 mmol/L NaCl, 1.5 mmol/L MgCl2, 1 mmol/L EGTA, 10% glycerol, and 1% Triton X-100 (pH 7.5), and 5 μL/mL protease inhibitor cocktail (Sigma-Aldrich)]. Samples were incubated at 100° C. for 2 min, separated on either 10% or 12% SDS-PAGE gels and then transferred to polyvinylidene difluoride membrane (PVDF; Bio-Rad, Hercules, Calif.). The PVDF membrane was blocked in 5% TBST-Blotto (10 mM Tris HCl, 150 mM NaCl, pH 8.0, 0.05% Triton X-100, and 5% nonfat dry milk) for about 30 min and was then incubated in fresh 5% TBST-Blotto with 1:1000 for caveolin-1 (Santa Cruz Biotechnology, Santa Cruz, Calif.), 1:1000 for p21 (BD Pharmingen, Frank lakes, NJ) and 1:10000 for β-actin (Sigma) primary antibody overnight with gentle shaking at 4° C. After washing with TBST for 10 min, the membrane was incubated with respective secondary antibody (1:5000) (Santa cruz, Calif.) in 5% TBST-Blotto for 3 hr. The membrane is then washed with TBST for 10 min, incubated with chemiluminiscence reagent from Perkin Elmer for one min and then exposed to Kodak X-OMAT AR autoradiography film (Eastman Kodak, Rochester, N.Y.).

For another assay, the target named is T1, PPARγ (Homo sapiens, UniProt P37231).
T1 construct: containing the DEF region of the PPARγ (amino acids 183-505) fused to the pVP16 expression vector; expressed in transfected cells; host or cells: SW480 colon cancer cells; plasmid provided by Dr. Shigeaki Kato (University of Tokyo)
T1 sequence (P37231 183-505): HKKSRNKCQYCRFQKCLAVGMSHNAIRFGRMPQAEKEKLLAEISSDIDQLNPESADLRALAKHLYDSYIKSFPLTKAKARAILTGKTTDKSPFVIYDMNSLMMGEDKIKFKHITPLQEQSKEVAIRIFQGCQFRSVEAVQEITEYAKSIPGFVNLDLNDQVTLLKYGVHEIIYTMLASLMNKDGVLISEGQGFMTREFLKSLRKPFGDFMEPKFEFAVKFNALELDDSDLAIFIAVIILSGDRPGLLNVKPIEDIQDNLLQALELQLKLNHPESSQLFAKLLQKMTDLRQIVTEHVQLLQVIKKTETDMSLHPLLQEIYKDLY
Nature of the assay: Mammalian two-hybrid assay (VP-PPARγ / GAL4-coactivator) in SW480 cells. The assay is classed as cell-based. The procedure: The GAL4 reporter construct containing 5×GAL4 response elements (p GAL4) was provided by Dr. Marty Mayo (University of […], Chapel Hill, N.C.). The GAL4-coactivator fusion plasmids pM-SRC1, pMSRC2, pMSRC3, pM-DRIP205, pM-CARM-1 and PPARγ-VP16 fusion plasmid (Vp-PPARγ) containing the DEF region of the PPARγ (amino acids 183-505) fused to the pVP16 expression vector were provided by Dr. Shigeaki Kato (University of Tokyo, Tokyo, Japan). SW480 colon cancer cells were plated in 12-well tissue culture plates at 1×10^5 cells per well in DMEM/Ham's F-12 medium supplemented with 2.5% charcoal stripped FBS.
After allowing them to adhere overnight, transient transfections were carried out with GAL4-Luc (0.4 μg), β-GAL (0.04 μg), VP-PPARγ (0.04 μg), pM-SRC1 (0.04 μg), pM-PGC-1 (0.04 μg), pM-SMRT (0.04 μg), pM-TRAP220 (0.04 μg), pM-DRIP205 (0.04 μg), and pMCARM1 (0.04 μg) using LipofectAMINE2000 (Invitrogen) following the manufacturer's guidelines. After 6 hr of transfection, cells were treated in triplicate either with vehicle (DMSO) or the indicated compound suspended in complete medium for 20-24 hr. One hundred μL per well of 1× Reporter Lysis Buffer (Promega) was used to lyse the cells and 30 μl of this lysate was used to perform the luciferase and β-GAL assays using Lumicount (Perkin-Elmer Life and Analytical Sciences, Boston, Mass.). The luciferase activities obtained were normalized to the β-gal activity.

A further assay has as its system Panc-28 cells. Nature of the assay: Cell proliferation assay, Panc-28 cells. The assay is classed as cell-based. Conditions: Homo sapiens, read-out: IC50 values, inhibition of growth. On the procedure: SW480, HT-29 and HCT-15 human colon cancer cells were provided by Dr. Stan Hamilton (M. D. Anderson Cancer Center (Houston, Tex.). Panc-28 human pancreatic cancer cells and 3T3-L1 pre-adipocytes were obtained from American Type Culture Collection (Manassas, Va.). SW480, HT-29 and Panc-28 cells were maintained in Dulbecco's modified/Ham's F-12 (Sigma-Aldrich, St Louis, Mo.) with phenol red supplemented with 0.22% sodium bicarbonate, 0.011% sodium pyruvate, 5% fetal bovine serum, and 10 mL/L 100× antibiotic antimycotic solution (Sigma). HCT-15 cells were maintained in RPMI 1640 (Sigma) supplemented with 0.22% sodium bicarbonate, 0.011% sodium pyruvate, 0.45% glucose, 0.24% HEPES, 10% fetal bovine serum, and 10 mL/L of 100× antibiotic antimycotic solution (Sigma). Cells were maintained at 37° C. in the presence of 5% CO2.
This assay is performed in 12-well tissue culture plates at the concentration of 2×10^4 cells per well, using DMEM/Ham's F-12 media containing 2.5% charcoal stripped FBS. The cells were counted on the initial day using a Z1 cell counter (Beckman Coulter, Fullerton, Calif.) and then were treated either with vehicle (DMSO) or the indicated triterpenoid compounds, each sample in triplicate. Every 48 hr, fresh medium was added along with the indicated compounds. […] The results are expressed as means±S.E for each set of triplicate.

In assay [1] the test system is Miapaca-2 pancreatic cancer cells. Nature of the assay: Western blot of Sp proteins in Miapaca-2 cells. The assay is classed as cell-based. The note with it: Miapaca-2, 24 hr. On the procedure:
RKO colon cancer cells were treated with BA/CN-BA for 24 hr (FIG. 15A) or 48 hr (FIG. 15B) and Miapaca-2 pancreatic cancer cells were treated with BA/CN-BA for 24 hr (FIG. 15C). Whole cell lysates were examined by Western blot analysis.
On the technique in general: In western blotting, separated proteins are transferred to a membrane and probed.

SMILES strings stand for the structures.

A word on the IC50: it is the concentration at which inhibition is half-maximal.

`COC(=O)C12CCC(C(C)C)C1C1CCC3C4(C)C=C(C#N)C(=O)C(C)(C)C4CCC3(C)C1(C)CC2` (stereo not drawn) [CN-BA-Me, Methyl 2-cyano-lup-1-en-3-oxo-20-oate]: in the assay on SW480 cells, the caveolin-1 induction result is “did not induce caveolin-1 expression” and the caveolin-1 protein level result is “decreased expression”. Besides, on PPARγ, the “activation of GAL4-CARM1” value is “activated”; the “luciferase activity, VP-PPARγ with GAL4 PGC-1 and GAL4 SRC-1” value is “significantly induced luciferase activity”.

Take `C=C(C)[C@@H]1CC[C@]2(C(=O)O)CC[C@]3(C)[C@H](CC[C@@H]4[C@@]5(C)CC[C@H](O)C(C)(C)[C@@H]5CC[C@]43C)[C@@H]12` [betulinic acid, Betulinic acid]: in the assay on Panc-28 cells, the IC50 fell in the range of 1000 to 5000 nM.

As to `CC(C)C1CCC2(C(=O)O)CCC3(C)C(CCC4C5(C)C=C(C#N)C(=O)C(C)(C)C5CCC43C)C12` (stereo not drawn) [CN-BA], in the assay with SW480 cells, the caveolin-1 induction result was “did not induce caveolin-1 expression” and the caveolin-1 protein level entry is reported as “decreased expression”. Further, the Sp protein expression result in assay [1] was “decrease Sp protein expression”. Further, the “luciferase activity, VP-PPARγ with GAL4 PGC-1 and GAL4 SRC-1” value on PPARγ is recorded as “significantly induced luciferase activity”.

Source of the values: US20090203661A1, “Betulinic acid, derivatives and analogs thereof and uses therefor” (priority 2006, published 2009).
